Assay results from US20240218022A1, “ANTI-VISTA MACROCYCLIC PEPTIDES AND COMPOSITIONS” (BRISTOL-MYERS SQUIBB COMPANY, priority 2022, published 2024).
Starred links: 1 amine or outer side, 2 acyl side, 3 side chain; linkers in the order of their positions; H or OH if unused. Positions of bridges follow the written chain, without caps; N, C: chain ends. Non-standard residues stand in square brackets, D forms with d. Residues, ends and D or L forms follow the SMILES beside them. Phe(3-Me) = Cc1cccc(C[C@H](N)C(=O)O)c1; γGlu = O=C(O)[C@H](CCC(=O)[*:2])N[*:1]; 2Nal = N[C@@H](Cc1ccc2ccccc2c1)C(=O)O; βAsp = O=C(O)[C@H](CC(=O)[*:2])N[*:1]; Cit = NC(=O)NCCC[C@H](N)C(=O)O; Ahp(2) = CCCCC[C@H](N)C(=O)O; NMeNle = CCCC[C@H](NC)C(=O)O; NHexGly = CCCCCCNCC(=O)O; Nle = CCCC[C@H](N)C(=O)O; Aun = NCCCCCCCCCCC(=O)O; AEEA = NCCOCCOCC(=O)O

Biological target: T1, mouse VISTA (mVISTA) (Mus musculus, UniProt Q9D659)
T1 construct: expressed in transfected cells; host or cells: Human embryonic kidney 293T cells
T1 sequence (Q9D659 33-308): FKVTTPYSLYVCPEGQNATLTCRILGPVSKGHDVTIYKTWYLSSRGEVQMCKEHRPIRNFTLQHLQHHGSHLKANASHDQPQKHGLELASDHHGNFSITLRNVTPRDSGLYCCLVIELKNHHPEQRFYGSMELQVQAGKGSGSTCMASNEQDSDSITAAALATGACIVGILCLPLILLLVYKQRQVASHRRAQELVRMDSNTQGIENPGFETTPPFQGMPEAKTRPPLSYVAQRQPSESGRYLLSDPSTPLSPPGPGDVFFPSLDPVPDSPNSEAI
Test: Cell-Based Binding High-Content Assay For mVISTA (HC CBA mVISTA)
Details: cell-based binding high-content assay, mVISTA; read-out: HC CBA miPr ISTA IC50
In short: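 Competition of compound with a biotinylated peptide (final 2 nM, 30 min at RT) for binding to mVISTA on 293T cells, run under no-wash or wash (1 h compound preincubation then removal) formats. Readout by Alexa 647–streptavidin imaging on a high-content platform; four-parameter logistic fit gave IC50.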

IC50 | Compound
19.6 nM | CCCCCCN1CC(=O)N[C@@H](Cc2ccc(O)cc2)C(=O)N[C@@H](CC(C)C)C(=O)N[C@@H](CC(N)=O)C(=O)N[C@@H](CCCNC(=N)N)C(=O)N[C@@H](CC(C)C)C(=O)N[C@@H](CCCCC)C(=O)N2CCC[C@H]2C(=O)N[C@@H](C(C)C)C(=O)N[C@@H](CO)C(=O)N[C@H](C(=O)N[C@@H](CCC(=O)NCCOCCOCC(=O)N[C@@H](CC(=O)O)C(=O)NCCOCCOCC(=O)NCCCCCCCCCCC(=O)O)C(=O)O)CSCC(=O)N[C@@H](Cc2ccccc2)C(=O)N[C@@H](Cc2ccc(O)cc2)C(=O)N[C@@H](CC(=O)O)C1=O [compound 2002] ({CH2CO}-FYD[NHexGly]YLNRL[Ahp(2)]PVSC[γGlu][AEEA]D[AEEA][Aun]-OH; thioether N-14)
37.8 nM | CCCCCCN1CC(=O)N[C@@H](Cc2ccc(O)cc2)C(=O)N[C@@H](CC(C)C)C(=O)N[C@@H](CC(N)=O)C(=O)N[C@@H](CCCNC(=N)N)C(=O)N[C@@H](CC(C)C)C(=O)N[C@@H](CCCCC)C(=O)N2CCC[C@H]2C(=O)N[C@@H](C(C)C)C(=O)N[C@@H](CO)C(=O)N[C@H](C(=O)N[C@@H](CC(=O)NCCOCCOCC(=O)N[C@@H](CC(=O)O)C(=O)NCCOCCOCC(=O)NCCCCCCCCCCC(=O)O)C(=O)O)CSCC(=O)N[C@@H](Cc2ccccc2)C(=O)N[C@@H](Cc2ccc(O)cc2)C(=O)N[C@@H](CC(=O)O)C1=O [compound 2003] ({CH2CO}-FYD[NHexGly]YLNRL[Ahp(2)]PVSC[βAsp][AEEA]D[AEEA][Aun]-OH; thioether N-14)
49.3 nM | CCCCCCN1CC(=O)N[C@@H](Cc2ccc(O)cc2)C(=O)N[C@@H](CC(C)C)C(=O)N[C@@H](CC(N)=O)C(=O)N[C@@H](CCCNC(=N)N)C(=O)N[C@@H](CC(C)C)C(=O)N[C@@H](CCCCC)C(=O)N2CCC[C@H]2C(=O)N[C@@H](C(C)C)C(=O)N[C@@H](CO)C(=O)N[C@H](C(=O)N[C@@H](CC(=O)O)C(=O)NCCOCCOCC(=O)N[C@@H](CC(=O)O)C(=O)NCCOCCOCC(=O)NCCCCCCCCCCC(=O)O)CSCC(=O)N[C@@H](Cc2ccccc2)C(=O)N[C@@H](Cc2ccc(O)cc2)C(=O)N[C@@H](CC(=O)O)C1=O [compound 2004] ({CH2CO}-FYD[NHexGly]YLNRL[Ahp(2)]PVSCD[AEEA]D[AEEA][Aun]-OH; thioether N-14)
10.5 nM | CCCCCCN1CC(=O)N[C@@H](Cc2ccc(O)cc2)C(=O)N[C@@H](CCCC)C(=O)N[C@@H](CC(=O)O)C(=O)N[C@@H](CCCNC(=N)N)C(=O)N[C@@H](CC(C)C)C(=O)N[C@@H](CCCCC)C(=O)N2CCC[C@H]2C(=O)N[C@@H](C(C)C)C(=O)N[C@@H](CC(N)=O)C(=O)N[C@H](C(=O)NCC(=O)NCCOCCOCC(=O)N[C@@H](CC(=O)O)C(=O)NCCOCCOCC(=O)NCCCCCCCCCCC(=O)O)CSCC(=O)N[C@@H](Cc2ccccc2)C(=O)N[C@@H](Cc2ccc(O)cc2)C(=O)N[C@@H](CC(=O)O)C1=O [compound 2005] ({CH2CO}-FYD[NHexGly]Y[Nle]DRL[Ahp(2)]PVNCG[AEEA]D[AEEA][Aun]-OH; thioether N-14)
19.6 nM | CCCCCCN1CC(=O)N[C@@H](Cc2ccc(O)cc2)C(=O)N[C@@H](CCCC)C(=O)N[C@@H](CC(N)=O)C(=O)N[C@@H](CCCNC(=N)N)C(=O)N[C@@H](CC(C)C)C(=O)N[C@@H](CCCCC)C(=O)N2CCC[C@H]2C(=O)N[C@@H](C(C)C)C(=O)N[C@@H](CO)C(=O)N[C@H](C(=O)NCC(=O)NCCOCCOCC(=O)N[C@@H](CC(=O)O)C(=O)NCCOCCOCC(=O)NCCCCCCCCCCC(=O)O)CSCC(=O)N[C@@H](Cc2ccc3ccccc3c2)C(=O)N[C@@H](Cc2ccc(O)cc2)C(=O)N[C@@H](CC(=O)O)C1=O [compound 2007] ({CH2CO}-[2Nal]YD[NHexGly]Y[Nle]NRL[Ahp(2)]PVSCG[AEEA]D[AEEA][Aun]-OH; thioether N-14)
16.1 nM | CCCCCCN1CC(=O)N[C@@H](Cc2ccc(O)cc2)C(=O)N[C@@H](CCCC)C(=O)N[C@@H](CC(N)=O)C(=O)N[C@@H](CCCNC(=N)N)C(=O)N[C@@H](CC(C)C)C(=O)N[C@@H](CCCCC)C(=O)N2CCC[C@H]2C(=O)N[C@@H](C(C)C)C(=O)N[C@@H](CC(=O)O)C(=O)N[C@H](C(=O)NCC(=O)NCCOCCOCC(=O)N[C@@H](CC(=O)O)C(=O)NCCOCCOCC(=O)NCCCCCCCCCCC(=O)O)CSCC(=O)N[C@@H](Cc2cccc(C)c2)C(=O)N[C@@H](Cc2c[nH]c3ccccc23)C(=O)N[C@@H](CC(=O)O)C1=O [compound 2008] ({CH2CO}-[Phe(3-Me)]WD[NHexGly]Y[Nle]NRL[Ahp(2)]PVDCG[AEEA]D[AEEA][Aun]-OH; thioether N-14)
38.9 nM | CCCCCCN1CC(=O)N[C@@H](Cc2ccc(O)cc2)C(=O)N[C@@H](CC(C)C)C(=O)N[C@@H](CC(N)=O)C(=O)N[C@@H](CCCNC(=N)N)C(=O)N[C@@H](CC(C)C)C(=O)N[C@@H](CCCCC)C(=O)N2CCC[C@H]2C(=O)N[C@@H](C(C)C)C(=O)N[C@@H](C(C)C)C(=O)N[C@H](C(=O)NCC(=O)NCCOCCOCC(=O)N[C@@H](CC(=O)O)C(=O)NCCOCCOCC(=O)NCCCCCCCCCCC(=O)O)CSCC(=O)N[C@@H](Cc2ccccc2)C(=O)N[C@@H](Cc2cccc(C)c2)C(=O)N[C@@H](CC(=O)O)C1=O [compound 2009] ({CH2CO}-F[Phe(3-Me)]D[NHexGly]YLNRL[Ahp(2)]PVVCG[AEEA]D[AEEA][Aun]-OH; thioether N-14)
15.9 nM | CCCCCCN1CC(=O)N[C@@H](Cc2ccc(O)cc2)C(=O)N[C@@H](CCCC)C(=O)N[C@@H](CC(N)=O)C(=O)N[C@@H](CCCNC(=N)N)C(=O)N(C)[C@@H](CCCC)C(=O)N[C@@H](CCCCC)C(=O)N2CCC[C@H]2C(=O)N[C@@H](C(C)C)C(=O)N[C@@H](CC(=O)O)C(=O)N[C@H](C(=O)NCC(=O)NCCOCCOCC(=O)N[C@@H](CC(=O)O)C(=O)NCCOCCOCC(=O)NCCCCCCCCCCC(=O)O)CSCC(=O)N[C@@H](Cc2ccccc2)C(=O)N[C@@H](Cc2c[nH]c3ccccc23)C(=O)N[C@@H](CC(=O)O)C1=O [compound 2010] ({CH2CO}-FWD[NHexGly]Y[Nle]NR[NMeNle][Ahp(2)]PVDCG[AEEA]D[AEEA][Aun]-OH; thioether N-14)
51.3 nM | CCCCCCN1CC(=O)N[C@@H](Cc2ccc(O)cc2)C(=O)N[C@@H](CC(C)C)C(=O)N[C@@H](CC(N)=O)C(=O)N[C@@H](CCCNC(=N)N)C(=O)N[C@@H](CC(C)C)C(=O)N[C@@H](CCCCC)C(=O)N2CCC[C@H]2C(=O)N[C@@H](C(C)C)C(=O)N[C@@H](C(C)C)C(=O)N[C@H](C(=O)NCC(=O)NCCOCCOCC(=O)N[C@@H](CC(=O)O)C(=O)NCCOCCOCC(=O)NCCCCCCCCCCC(=O)O)CSCC(=O)N[C@@H](Cc2ccccc2)C(=O)N[C@@H](Cc2ccc(O)cc2)C(=O)N[C@@H](CC(=O)O)C1=O [compound 2012] ({CH2CO}-FYD[NHexGly]YLNRL[Ahp(2)]PVVCG[AEEA]D[AEEA][Aun]-OH; thioether N-14)
25.5 nM | CCCCCCN1CC(=O)N[C@@H](Cc2ccc(O)cc2)C(=O)N[C@@H](CCCCC)C(=O)NCC(=O)N[C@@H](CCCNC(=N)N)C(=O)N[C@@H](CC(C)C)C(=O)N[C@@H](CCCCC)C(=O)N2CCC[C@H]2C(=O)N[C@@H](C(C)C)C(=O)N[C@@H](CO)C(=O)N[C@H](C(=O)NCC(=O)NCCOCCOCC(=O)N[C@@H](CC(=O)O)C(=O)NCCOCCOCC(=O)NCCCCCCCCCCC(=O)O)CSCC(=O)N[C@@H](Cc2ccccc2)C(=O)N[C@@H](Cc2ccc(O)cc2)C(=O)N[C@@H](CC(=O)O)C1=O [compound 2013] ({CH2CO}-FYD[NHexGly]Y[Ahp(2)]GRL[Ahp(2)]PVSCG[AEEA]D[AEEA][Aun]-OH; thioether N-14)
16.4 nM | CCCCCCN1CC(=O)N[C@@H](Cc2ccc(O)cc2)C(=O)N[C@@H](CCCC)C(=O)NCC(=O)N[C@@H](CCCNC(=N)N)C(=O)N[C@@H](CC(C)C)C(=O)N[C@@H](CCCCC)C(=O)N2CCC[C@H]2C(=O)N[C@@H](C(C)C)C(=O)N[C@@H](CC(=O)O)C(=O)N[C@H](C(=O)NCC(=O)NCCOCCOCC(=O)N[C@@H](CC(=O)O)C(=O)NCCOCCOCC(=O)NCCCCCCCCCCC(=O)O)CSCC(=O)N[C@@H](Cc2cccc(C)c2)C(=O)N[C@@H](Cc2ccc(O)cc2)C(=O)N[C@@H](CC(=O)O)C1=O [compound 2014] ({CH2CO}-[Phe(3-Me)]YD[NHexGly]Y[Nle]GRL[Ahp(2)]PVDCG[AEEA]D[AEEA][Aun]-OH; thioether N-14)
19 nM | CCCCCCN1CC(=O)N[C@@H](Cc2ccc(O)cc2)C(=O)N[C@@H](CCCC)C(=O)N[C@@H](CC(N)=O)C(=O)N[C@@H](CCCNC(N)=O)C(=O)N[C@@H](CC(C)C)C(=O)N[C@@H](CCCCC)C(=O)N2CCC[C@H]2C(=O)N[C@@H](C(C)C)C(=O)N[C@@H](CO)C(=O)N[C@H](C(=O)NCC(=O)NCCOCCOCC(=O)N[C@@H](CC(=O)O)C(=O)NCCOCCOCC(=O)NCCCCCCCCCCC(=O)O)CSCC(=O)N[C@@H](Cc2ccc3ccccc3c2)C(=O)N[C@@H](Cc2ccc(O)cc2)C(=O)N[C@@H](CC(=O)O)C1=O [compound 2016] ({CH2CO}-[2Nal]YD[NHexGly]Y[Nle]N[Cit]L[Ahp(2)]PVSCG[AEEA]D[AEEA][Aun]-OH; thioether N-14)
20.4 nM | CCCCCCN1CC(=O)N[C@@H](Cc2ccc(O)cc2)C(=O)N[C@@H](CCCC)C(=O)N[C@@H](CC(=O)O)C(=O)N[C@@H](CCCNC(N)=O)C(=O)N[C@@H](CC(C)C)C(=O)N[C@@H](CCCCC)C(=O)N2CCC[C@H]2C(=O)N[C@@H](C(C)C)C(=O)N[C@@H](CC(N)=O)C(=O)N[C@H](C(=O)NCC(=O)NCCOCCOCC(=O)N[C@@H](CC(=O)O)C(=O)NCCOCCOCC(=O)NCCCCCCCCCCC(=O)O)CSCC(=O)N[C@@H](Cc2ccccc2)C(=O)N[C@@H](Cc2ccc(O)cc2)C(=O)N[C@@H](CC(=O)O)C1=O [compound 2018] ({CH2CO}-FYD[NHexGly]Y[Nle]D[Cit]L[Ahp(2)]PVNCG[AEEA]D[AEEA][Aun]-OH; thioether N-14)
